Measured values as given in PMC4774911, “Biochemical Screening of Five Protein Kinases from Plasmodium falciparum against 14,000 Cell-Active Compounds” (PLoS ONE, 2016).
Several values for one entry are separate records, joined by “and”; a condition that tells them apart may be missing. Equal entries are not always repeated.

Key:
Assay in all cases: biochemical
[1] = target: T1, MAP3K3 (Homo sapiens, UniProt Q99759)
T1 sequence (Q99759 1-626): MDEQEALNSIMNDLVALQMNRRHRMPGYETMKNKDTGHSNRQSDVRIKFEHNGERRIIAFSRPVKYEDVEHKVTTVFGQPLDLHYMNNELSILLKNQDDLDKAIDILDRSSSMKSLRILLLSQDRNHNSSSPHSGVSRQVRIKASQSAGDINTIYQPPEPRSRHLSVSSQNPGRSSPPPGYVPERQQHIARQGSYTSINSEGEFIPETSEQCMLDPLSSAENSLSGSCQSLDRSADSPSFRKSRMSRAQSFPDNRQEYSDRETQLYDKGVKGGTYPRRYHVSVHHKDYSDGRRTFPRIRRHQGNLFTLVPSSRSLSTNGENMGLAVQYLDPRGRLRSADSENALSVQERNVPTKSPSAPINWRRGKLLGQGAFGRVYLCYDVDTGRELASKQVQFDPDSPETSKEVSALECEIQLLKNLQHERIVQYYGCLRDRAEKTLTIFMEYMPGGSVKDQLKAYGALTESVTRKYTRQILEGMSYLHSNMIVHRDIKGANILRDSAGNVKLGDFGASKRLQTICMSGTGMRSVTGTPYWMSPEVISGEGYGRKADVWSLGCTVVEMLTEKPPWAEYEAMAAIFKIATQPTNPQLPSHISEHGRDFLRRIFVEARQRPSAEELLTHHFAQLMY

[2] = target: MINK1 (Homo sapiens, UniProt Q8N4C8)
Chain of MINK1 (Q8N4C8 whole entry): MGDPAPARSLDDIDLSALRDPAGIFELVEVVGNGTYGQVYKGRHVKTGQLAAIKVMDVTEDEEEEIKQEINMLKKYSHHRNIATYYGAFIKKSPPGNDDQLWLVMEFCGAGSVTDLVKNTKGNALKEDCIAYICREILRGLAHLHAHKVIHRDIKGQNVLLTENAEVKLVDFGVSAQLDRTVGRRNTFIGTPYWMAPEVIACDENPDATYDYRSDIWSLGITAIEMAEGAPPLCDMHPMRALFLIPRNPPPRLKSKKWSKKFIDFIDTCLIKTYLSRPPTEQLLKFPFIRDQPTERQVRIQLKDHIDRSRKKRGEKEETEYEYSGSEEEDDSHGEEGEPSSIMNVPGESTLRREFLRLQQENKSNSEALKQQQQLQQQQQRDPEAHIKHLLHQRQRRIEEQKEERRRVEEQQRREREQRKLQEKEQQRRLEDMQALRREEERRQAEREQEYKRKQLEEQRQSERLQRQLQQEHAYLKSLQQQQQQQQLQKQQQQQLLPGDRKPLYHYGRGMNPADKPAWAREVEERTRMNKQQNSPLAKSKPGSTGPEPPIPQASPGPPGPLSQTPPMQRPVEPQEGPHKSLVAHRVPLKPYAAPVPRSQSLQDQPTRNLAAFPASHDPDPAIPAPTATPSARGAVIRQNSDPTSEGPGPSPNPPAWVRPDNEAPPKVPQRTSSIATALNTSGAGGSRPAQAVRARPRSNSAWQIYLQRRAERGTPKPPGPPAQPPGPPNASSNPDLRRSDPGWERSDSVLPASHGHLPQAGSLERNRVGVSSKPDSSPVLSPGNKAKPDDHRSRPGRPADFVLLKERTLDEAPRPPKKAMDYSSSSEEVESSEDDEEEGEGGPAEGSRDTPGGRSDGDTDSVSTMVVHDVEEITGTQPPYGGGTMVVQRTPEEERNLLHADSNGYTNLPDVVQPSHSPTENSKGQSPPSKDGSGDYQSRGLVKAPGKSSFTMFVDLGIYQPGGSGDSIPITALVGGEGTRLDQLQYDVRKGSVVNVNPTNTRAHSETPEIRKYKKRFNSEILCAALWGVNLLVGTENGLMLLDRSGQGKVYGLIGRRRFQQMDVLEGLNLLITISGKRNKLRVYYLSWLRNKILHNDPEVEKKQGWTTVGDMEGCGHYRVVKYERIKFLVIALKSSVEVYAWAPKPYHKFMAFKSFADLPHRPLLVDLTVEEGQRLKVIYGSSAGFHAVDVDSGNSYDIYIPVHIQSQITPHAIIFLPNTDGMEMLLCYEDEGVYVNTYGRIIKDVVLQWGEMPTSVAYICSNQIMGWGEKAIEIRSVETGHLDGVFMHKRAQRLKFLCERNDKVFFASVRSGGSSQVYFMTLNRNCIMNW

[3] = target: T2, NEK3 (Homo sapiens, UniProt P51956)
T2 sequence (P51956 1-506): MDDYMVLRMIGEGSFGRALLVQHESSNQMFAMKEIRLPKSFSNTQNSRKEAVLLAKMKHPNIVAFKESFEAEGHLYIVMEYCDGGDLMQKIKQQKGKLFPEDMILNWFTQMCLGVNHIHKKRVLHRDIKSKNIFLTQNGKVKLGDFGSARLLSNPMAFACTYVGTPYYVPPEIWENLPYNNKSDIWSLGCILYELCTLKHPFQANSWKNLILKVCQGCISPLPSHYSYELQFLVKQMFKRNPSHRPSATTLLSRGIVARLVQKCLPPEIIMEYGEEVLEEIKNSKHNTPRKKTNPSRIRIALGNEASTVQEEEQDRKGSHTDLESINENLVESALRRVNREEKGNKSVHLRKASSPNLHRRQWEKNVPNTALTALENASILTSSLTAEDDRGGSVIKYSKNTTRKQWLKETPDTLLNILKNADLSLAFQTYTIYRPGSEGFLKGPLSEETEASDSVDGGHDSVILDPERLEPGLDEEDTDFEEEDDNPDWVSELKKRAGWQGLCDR

[4] = target: T3, PIP4K2B (Homo sapiens, UniProt P78356)
T3 sequence (P78356 1-416): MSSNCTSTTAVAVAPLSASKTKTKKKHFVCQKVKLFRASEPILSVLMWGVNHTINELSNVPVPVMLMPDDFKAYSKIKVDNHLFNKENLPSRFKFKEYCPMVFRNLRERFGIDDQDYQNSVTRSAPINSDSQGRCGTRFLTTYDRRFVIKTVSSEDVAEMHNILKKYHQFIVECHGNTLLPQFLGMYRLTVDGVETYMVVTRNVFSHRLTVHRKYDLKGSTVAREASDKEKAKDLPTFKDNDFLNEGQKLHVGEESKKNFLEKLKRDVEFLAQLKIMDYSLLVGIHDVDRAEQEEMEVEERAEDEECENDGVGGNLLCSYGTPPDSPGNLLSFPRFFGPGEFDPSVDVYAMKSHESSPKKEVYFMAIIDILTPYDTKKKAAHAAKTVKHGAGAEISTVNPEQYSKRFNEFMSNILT

[5] = target: T4, ULK1 (Homo sapiens, UniProt O75385)
T4 sequence (O75385 1-1050): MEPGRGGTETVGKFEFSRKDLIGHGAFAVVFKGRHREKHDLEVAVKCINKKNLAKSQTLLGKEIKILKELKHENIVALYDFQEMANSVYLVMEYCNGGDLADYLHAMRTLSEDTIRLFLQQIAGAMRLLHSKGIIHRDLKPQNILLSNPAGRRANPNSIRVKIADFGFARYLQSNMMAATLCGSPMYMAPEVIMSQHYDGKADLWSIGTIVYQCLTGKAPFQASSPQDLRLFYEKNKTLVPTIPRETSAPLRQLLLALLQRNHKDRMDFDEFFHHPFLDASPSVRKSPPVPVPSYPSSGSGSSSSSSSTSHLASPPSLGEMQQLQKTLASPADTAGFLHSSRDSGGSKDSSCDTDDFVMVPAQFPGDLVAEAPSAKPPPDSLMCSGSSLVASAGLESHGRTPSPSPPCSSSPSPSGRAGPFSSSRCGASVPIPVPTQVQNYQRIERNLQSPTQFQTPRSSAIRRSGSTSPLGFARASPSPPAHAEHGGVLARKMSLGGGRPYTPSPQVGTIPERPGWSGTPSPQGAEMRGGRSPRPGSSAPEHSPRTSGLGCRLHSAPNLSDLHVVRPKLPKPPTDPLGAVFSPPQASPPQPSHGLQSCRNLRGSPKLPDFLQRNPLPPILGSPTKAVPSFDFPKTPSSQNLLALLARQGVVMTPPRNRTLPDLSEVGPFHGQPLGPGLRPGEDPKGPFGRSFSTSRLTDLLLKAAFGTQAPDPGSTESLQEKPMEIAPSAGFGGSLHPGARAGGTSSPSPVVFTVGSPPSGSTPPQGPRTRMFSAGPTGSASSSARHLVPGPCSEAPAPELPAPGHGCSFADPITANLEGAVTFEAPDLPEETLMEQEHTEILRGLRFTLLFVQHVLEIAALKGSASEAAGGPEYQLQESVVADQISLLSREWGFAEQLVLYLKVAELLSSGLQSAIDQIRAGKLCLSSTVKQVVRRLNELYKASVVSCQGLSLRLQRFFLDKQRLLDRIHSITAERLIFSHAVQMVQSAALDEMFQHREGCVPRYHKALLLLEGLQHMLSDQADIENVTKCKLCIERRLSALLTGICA

[6] = target: RIOK2 (Homo sapiens, UniProt Q9BVS4)
Chain of RIOK2 (Q9BVS4 whole entry): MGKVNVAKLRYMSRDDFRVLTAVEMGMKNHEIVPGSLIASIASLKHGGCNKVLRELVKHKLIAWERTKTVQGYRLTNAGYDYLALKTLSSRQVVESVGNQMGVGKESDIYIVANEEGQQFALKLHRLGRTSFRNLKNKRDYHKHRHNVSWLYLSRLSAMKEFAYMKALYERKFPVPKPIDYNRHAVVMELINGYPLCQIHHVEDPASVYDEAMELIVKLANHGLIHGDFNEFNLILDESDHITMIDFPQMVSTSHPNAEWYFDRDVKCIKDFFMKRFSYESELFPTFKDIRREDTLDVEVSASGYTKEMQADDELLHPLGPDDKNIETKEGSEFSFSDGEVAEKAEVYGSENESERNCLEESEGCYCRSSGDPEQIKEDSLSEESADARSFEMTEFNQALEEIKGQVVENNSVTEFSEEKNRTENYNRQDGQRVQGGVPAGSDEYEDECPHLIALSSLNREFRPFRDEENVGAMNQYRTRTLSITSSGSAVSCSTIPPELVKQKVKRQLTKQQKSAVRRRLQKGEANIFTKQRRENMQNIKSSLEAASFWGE

SMILES | IC50 [1] | IC50 [2] [µM] | IC50 [3] [µM] | IC50 [4] | IC50 [5] [µM] | IC50 [6] [µM]
CN1CCN(c2ccc(Nc3ncc(C#N)c(Nc4ccccc4C(N)=O)n3)cc2)CC1.Cl [TCMDC-134116] | 0.31 µM | 0.29 | 1.1 | 1.6 µM and 1 µM | 0.16 | 
Cl.NCC1(c2nc(-c3ccc(Cl)c(O)c3)c(-c3ccncc3)[nH]2)CCCCC1 [TCMDC-141154] |  | 1.4 | > 20 |  | > 20 | > 20
CN(C)CC(O)COc1ccc(Nc2ncc([N+](=O)[O-])c(Nc3ccccc3O)n2)cc1.O=C(O)C(F)(F)F (stereo not drawn) [TCMDC-141399] | 6 µM and > 20 µM |  |  | 0.97 µM |  | > 20
